Test results as given in patent US20180037568A1, “MODULATORS OF METHYL MODIFYING ENZYMES, COMPOSITIONS AND USES THEREOF” (Constellation Pharmaceuticals, Inc., priority 2015, published 2018).
Where two headings read alike, the source gives them in different places.

Columns and labels:
[1] = system: H3K27me3 mark; test: H3K27me3 Alpha Hela Assay (AlphaLISA); type: cell-based; conditions: Hela cells, read-out: EZH2 Cell H3K27me3 Alpha HeLa (EC50 K27me3)
Method: EC50 Measurements for Inhibitors in HeLa Cell Assays
H3K27me3 Alpha Hela Assay (AlphaLISA). Ten different doses of each test compound (in a series of 3-fold dilutions) were plated in duplicate 384-well tissue culture treated plates (Catalog #781080; Greiner Bio One; Monroe, N.C.). Hela cells grown in culture were trypsinized and counted using a Countess® cell counter (Catalog # C10281; Life Technologies, Grand Island, N.Y.). Cell were diluted to 67,000 cells per mL in 10% DMEM (Catalog #10569-010 Life Technologies, Grand Island, N.Y.) and 15 μL (1,000 cells) were plated into each well using the Biotek MicroFlo™ Select Dispenser (BioTek Instruments, Inc. Vermont, USA),) of the 384-well plate. Plates were incubated at 37° C./5% CO2 for 72 hrs. One of the duplicate plates was processed for HeLa assay and the other for viability.
To the plate processed for AlphaLISA was added 5 μL per well Cell-Histone Lysis buffer (1×) (Catalog # AL009F1 Perkin Elmer; Waltham, Mass.) and the plate was incubated at RT for 30 minutes on a plate shaker with low speed (Model#4625-Q Thermo Scientific; Waltham, Mass.). Then, 10 μL per well Histone Extraction buffer (catalog # AL009F2; Perkin Elmer; Waltham, Mass.) was added and the plate further incubated at RT for 20 min on plate shaker with low speed. To each well was then added 10 μL per well of a 5× mix of anti-K27me3 acceptor beads plus Biotinylated anti-Histone H3 (C-ter) Antibody (diluted to 3 nM final) (Catalog #AL118 Perkin Elmer; Waltham, Mass.). Dilution of the acceptor beads and then anti-Histone H3 was with 1× Histone Detection buffer (Catalog # AL009F3 Perkin Elmer; Waltham, Mass.) which was produced diluted from the 10× stock provided. The plate was sealed with an aluminum plate sealer and incubated at 23° C. for 60 min. We then added 10 μL 5× solution of Streptavidin Donor beads (Catalog #6760002 Perkin Elmer; Waltham, Mass.) (20 μg/mL final in 1× Histone Detection Buffer), sealed the plate with Aluminum plate sealer and incubated at 23° C. for 30 min. The plates were then read using an EnVision-Alpha Reader (model #2104 Perkin Elmer; Waltham, Mass.).
Data from both assays was analyzed using Assay Assistant (Constellation Pharmaceuticals In-house product) and Activity Base (IDBS Ltd, Surrey, UK) template. Data files were imported to Assay Assistant and assay conditions were specified. A unique Analysis ID was created and the data files exported to Activity Base. An analysis template was created on Activity Base to measure dose-dependent inhibition of H3K27me3 mark and cell viability respectively. Readout of DMSO wells were used to normalize the data. Resulting curves were fitted using Activity base software Model 205 (IDBS Ltd, Surrey, UK). The data was checked for quality, validated and integrated in excel format using SARview (IDBS Ltd, Surrey, UK).

[2] = target: T1, PRC2 containing wt EZH2 (Homo sapiens, UniProt Q15910); test: EZH2 pep BSA Brij 4.0 LowE (IC50): 3H-SAM incorporation into biotinylated H3 peptide; type: biochemical
T1 construct: made in house
Method: EZH2 Pep BSA Brij 4.0 LowE (IC50):
Compound potencies were assessed through incorporation of ^3H-SAM into a biotinylated H3 peptide. Specifically, PRC2 containing wt EZH2 (20 pM), (pentameric complexes prepared in-house) was pre-incubated with ^3H-SAM (0.9 μM), 2 μM H3K27me3 activating peptide (H2N-RKQLATKAAR(Kme3)SAPATGGVKKP-amide) and compounds (as 10 point duplicate dose response titrations in DMSO, final assay 0.8% DMSO (v/v)) for 120 min in 50 mM Tris (pH 8.5), 1 mM DTT, 0.07 mM Brij-35, 0.1% BSA, and 0.8% DMSO in a total volume of 12.5 μl. Reaction was initiated with biotinylated H3 substrate peptide (H2N-RKQLATKAAR(Kme1)SAPATGGVKKP-NTPEGBiot) as a 2 μM stock in 12.5 μl of buffer and allowed to react at room temperature for 5 h. Quenching was accomplished by addition of 20 μl of STOP solution (50 mM Tris (pH 8.5), 200 mM EDTA, 2 mM SAH). 35 μl of the quenched solution was transferred to Streptavidin Flashplates, incubated overnight, washed, and read in a TopCount Reader (Perkin Elmer). IC50s were calculated relative to fully active and no enzyme control wells using non-linear least square four parameter fits.

[3] = EZH2 pep BSA Brij 4.0 LowE (IC50), 20 pM PRC2 wt EZH2, 0.9 μM 3H-SAM, biotinylated H3 peptide substrate, 2 μM H3K27me3 activating peptide
[4] = read-out: EZH2 pep BSA Brij 4.0 LowE (IC50); 20 pM PRC2 wt EZH2, 0.9 μM 3H-SAM, biotinylated H3 peptide substrate, 2 μM H3K27me3 activating peptide
[5] = 20 pM PRC2 wt EZH2, 0.9 μM 3H-SAM, biotinylated H3 peptide substrate, 2 μM H3K27me3 activating peptide; read-out: EZH2 pep BSA Brij 4.0 LowE (IC50)

T1 sequence (Q15910 whole entry): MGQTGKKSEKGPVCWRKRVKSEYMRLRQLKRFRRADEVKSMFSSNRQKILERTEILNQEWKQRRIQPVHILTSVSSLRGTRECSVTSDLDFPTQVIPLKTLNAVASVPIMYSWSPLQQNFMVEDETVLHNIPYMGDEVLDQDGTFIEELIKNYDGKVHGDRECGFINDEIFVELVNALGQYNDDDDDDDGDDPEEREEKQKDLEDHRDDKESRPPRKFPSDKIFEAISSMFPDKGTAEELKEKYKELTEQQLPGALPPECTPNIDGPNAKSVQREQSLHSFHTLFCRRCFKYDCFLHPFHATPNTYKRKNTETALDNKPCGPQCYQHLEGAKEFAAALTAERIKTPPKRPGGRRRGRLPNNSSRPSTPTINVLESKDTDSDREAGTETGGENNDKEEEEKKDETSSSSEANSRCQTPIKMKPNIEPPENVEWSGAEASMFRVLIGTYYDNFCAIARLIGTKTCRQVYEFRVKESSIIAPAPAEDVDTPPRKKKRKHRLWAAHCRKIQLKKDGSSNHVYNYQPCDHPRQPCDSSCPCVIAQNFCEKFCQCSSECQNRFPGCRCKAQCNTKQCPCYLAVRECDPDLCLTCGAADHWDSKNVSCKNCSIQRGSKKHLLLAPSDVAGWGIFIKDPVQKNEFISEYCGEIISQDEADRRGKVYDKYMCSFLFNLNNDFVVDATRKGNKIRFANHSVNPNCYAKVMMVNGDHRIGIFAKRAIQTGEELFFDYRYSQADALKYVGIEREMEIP
T1 sequence (O75530 whole entry partner): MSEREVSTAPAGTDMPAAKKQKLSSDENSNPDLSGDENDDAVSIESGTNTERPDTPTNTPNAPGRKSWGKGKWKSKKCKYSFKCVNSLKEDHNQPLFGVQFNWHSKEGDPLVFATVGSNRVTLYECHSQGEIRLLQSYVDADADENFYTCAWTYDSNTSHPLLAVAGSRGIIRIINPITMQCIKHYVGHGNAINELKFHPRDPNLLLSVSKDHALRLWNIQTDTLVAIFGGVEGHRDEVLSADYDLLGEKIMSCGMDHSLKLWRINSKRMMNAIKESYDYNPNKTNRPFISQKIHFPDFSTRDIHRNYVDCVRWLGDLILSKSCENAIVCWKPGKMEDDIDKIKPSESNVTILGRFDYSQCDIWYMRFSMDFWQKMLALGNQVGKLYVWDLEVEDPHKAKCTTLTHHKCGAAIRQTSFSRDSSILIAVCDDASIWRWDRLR
T1 sequence (Q15022 whole entry partner): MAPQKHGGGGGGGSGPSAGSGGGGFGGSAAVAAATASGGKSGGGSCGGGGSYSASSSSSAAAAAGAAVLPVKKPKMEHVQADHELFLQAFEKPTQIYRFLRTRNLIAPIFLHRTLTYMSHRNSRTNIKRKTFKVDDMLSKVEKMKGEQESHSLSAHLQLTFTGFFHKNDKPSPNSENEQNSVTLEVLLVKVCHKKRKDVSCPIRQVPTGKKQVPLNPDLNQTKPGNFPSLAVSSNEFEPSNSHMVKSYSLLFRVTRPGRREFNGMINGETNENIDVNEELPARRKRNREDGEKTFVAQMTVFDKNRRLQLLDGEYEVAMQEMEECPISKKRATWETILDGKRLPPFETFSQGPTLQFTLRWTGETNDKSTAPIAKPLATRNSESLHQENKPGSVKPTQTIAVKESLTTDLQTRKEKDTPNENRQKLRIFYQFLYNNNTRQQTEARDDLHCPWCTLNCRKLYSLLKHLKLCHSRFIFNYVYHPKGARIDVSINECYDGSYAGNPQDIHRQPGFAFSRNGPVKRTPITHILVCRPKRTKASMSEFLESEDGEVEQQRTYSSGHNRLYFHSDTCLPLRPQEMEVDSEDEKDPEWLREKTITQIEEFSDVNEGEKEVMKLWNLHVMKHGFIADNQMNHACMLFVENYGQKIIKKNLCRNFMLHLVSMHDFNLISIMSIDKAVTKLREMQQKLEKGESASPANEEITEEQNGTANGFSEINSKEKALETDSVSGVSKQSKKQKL
T1 sequence (Q09028 whole entry partner): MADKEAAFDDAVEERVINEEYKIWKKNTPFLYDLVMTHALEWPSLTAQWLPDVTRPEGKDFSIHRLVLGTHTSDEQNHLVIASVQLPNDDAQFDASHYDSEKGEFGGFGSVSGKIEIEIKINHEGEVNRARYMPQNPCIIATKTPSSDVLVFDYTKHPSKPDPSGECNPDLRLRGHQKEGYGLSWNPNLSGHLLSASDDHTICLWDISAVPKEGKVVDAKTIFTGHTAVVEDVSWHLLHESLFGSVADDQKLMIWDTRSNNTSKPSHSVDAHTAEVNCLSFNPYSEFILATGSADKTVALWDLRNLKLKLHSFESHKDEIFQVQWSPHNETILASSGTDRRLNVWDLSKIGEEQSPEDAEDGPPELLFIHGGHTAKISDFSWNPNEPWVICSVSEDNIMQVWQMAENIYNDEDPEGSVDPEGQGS
T1 sequence (Q6ZN18 whole entry partner): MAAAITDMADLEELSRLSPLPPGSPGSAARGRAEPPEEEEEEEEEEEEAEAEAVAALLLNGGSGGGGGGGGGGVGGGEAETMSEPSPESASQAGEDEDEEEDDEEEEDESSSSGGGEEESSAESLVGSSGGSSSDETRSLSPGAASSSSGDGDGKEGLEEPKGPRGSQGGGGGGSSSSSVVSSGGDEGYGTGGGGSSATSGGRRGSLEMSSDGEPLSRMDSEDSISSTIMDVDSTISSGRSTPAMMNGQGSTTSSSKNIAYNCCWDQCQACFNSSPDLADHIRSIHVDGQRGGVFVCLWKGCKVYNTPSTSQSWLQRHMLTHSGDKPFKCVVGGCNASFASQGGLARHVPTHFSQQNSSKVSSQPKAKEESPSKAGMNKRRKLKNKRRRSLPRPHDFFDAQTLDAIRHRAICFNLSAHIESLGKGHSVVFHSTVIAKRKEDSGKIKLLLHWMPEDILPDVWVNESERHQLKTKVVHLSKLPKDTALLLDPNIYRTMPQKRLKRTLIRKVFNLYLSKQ

| SMILES | IC50 [2, 3] | IC50 [2, 5] | further results |
| --- | --- | --- | --- |
| Cc1cc(C)c(CNC(=O)c2c(C)n(C(C)C3CCNC(C(F)(F)F)C3)c3ccccc23)c(=O)[nH]1 (single isomer, unassigned) [Compound 17, N-((4,6-dimethyl-2-oxo-1,2-dihydropyridin-3-yl)methyl)-2-methyl-1-(1-(2-(trifluoromethyl)piperidin-4-yl)ethyl)-1H-indole-3-carboxamide] | < 100 nM | – | EC50 ([1]; Homo sapiens, HeLa, 72 h): < 400 nM |
| Cc1cc(C)c(CNC(=O)c2c(C)n(C(C)C3CCN(C)C(C(F)(F)F)C3)c3ccccc23)c(=O)[nH]1 (single isomer, unassigned) [Compound 25, N-((4,6-dimethyl-2-oxo-1,2-dihydropyridin-3-yl)methyl)-2-methyl-1-(1-(1-methyl-2-(trifluoromethyl)piperidin-4-yl)ethyl)-1H-indole-3-carboxamide] | < 100 nM | – | EC50 ([1]; 72 hrs): > 2000 nM |
| Cc1cc(C)c(CNC(=O)c2c(C)n(C(C)C3CCN(C)C(C(F)(F)F)C3)c3ccccc23)c(=O)[nH]1 (single isomer, unassigned) [Compound 26, N-((4,6-dimethyl-2-oxo-1,2-dihydropyridin-3-yl)methyl)-2-methyl-1-(1-(1-methyl-2-(trifluoromethyl)piperidin-4-yl)ethyl)-1H-indole-3-carboxamide] | – | – | EC50 ([1]; 72 hrs): < 400 nM; IC50 [2, 4]: < 100 nM |
| Cc1cc(C)c(CNC(=O)c2c(C)n(C(C)C3CCN(CC(C)(F)F)C(C)C3)c3ccccc23)c(=O)[nH]1 (stereo not shown) [Compound 48] | 100 to 1000 nM | – | – |
| Cc1cc(C)c(CNC(=O)c2c(C)n(C(C)C3CCN(CC(C)(F)F)C(C)C3)c3ccccc23)c(=O)[nH]1 (stereo not shown) [Compound 49] | 100 to 1000 nM | – | – |
| COc1cc(C)[nH]c(=O)c1CNC(=O)c1c(C)n(C(C)C2CCNC(c3ccccc3F)C2)c2ccccc12 (stereo not shown) [Compound 50] | < 100 nM | – | – |
| COc1cc(C)[nH]c(=O)c1CNC(=O)c1c(C)n(C(C)C2CCNC(c3cccc(F)c3)C2)c2ccccc12 (stereo not shown) [Compound 51] | – | < 100 nM | – |
| Cc1cc(C)c(CNC(=O)c2c(C)n(C(C)C3CCNC(c4cccc(F)c4)C3)c3ccccc23)c(=O)[nH]1 (stereo not shown) [Compound 52] | – | < 100 nM | – |
| Cc1cc(C)c(CNC(=O)c2c(C)n(C(C)C3CCNC(c4cccc(F)c4)C3)c3ccccc23)c(=O)[nH]1 (stereo not shown) [Compound 53] | – | < 100 nM | – |
| CCC1CC(C(C)n2c(C)c(C(=O)NCc3c(OC)cc(C)[nH]c3=O)c3ccccc32)CCN1CC(F)F (stereo not shown) [Compound 54] | < 100 nM | – | – |
| COc1cc(C)[nH]c(=O)c1CNC(=O)c1c(C)n(C(C)C2CCN(C)C(c3cccc(F)c3)C2)c2ccccc12 (stereo not shown) [Compound 55] | – | < 100 nM | – |
| Cc1cc(C)c(CNC(=O)c2c(C)n(C(C)C3CCN(C)C(c4cccc(F)c4)C3)c3ccccc23)c(=O)[nH]1 (stereo not shown) [Compound 56] | – | < 100 nM | – |
| COc1cc(C)[nH]c(=O)c1CNC(=O)c1c(C)n(C(C)C2CCN(C)C(c3cccc(F)c3)C2)c2ccccc12 (stereo not shown) [Compound 57] | – | < 100 nM | – |
| Cc1cc(C)c(CNC(=O)c2c(C)n(C(C)C3CCN(CC(C)(F)F)C(C)C3)c3ccccc23)c(=O)[nH]1 (stereo not shown) [Compound 58] | < 100 nM | – | – |
| CCC1CC(C(C)n2c(C)c(C(=O)NCc3c(OC)cc(C)[nH]c3=O)c3ccccc32)CCN1CC(F)F (stereo not shown) [Compound 59] | – | – | IC50 [2, 4]: < 100 nM |
| CCC1CC(C(C)n2c(C)c(C(=O)NCc3c(OC)cc(C)[nH]c3=O)c3ccccc32)CCN1CC(F)F (stereo not shown) [Compound 60] | – | – | IC50 [2, 4]: < 100 nM |
| Cc1cc(C)c(CNC(=O)c2c(C)n(C(C)C3CCN(C)C(c4cccc(F)c4)C3)c3ccccc23)c(=O)[nH]1 (stereo not shown) [Compound 61] | – | < 100 nM | – |
| CCC1CC(C(C)n2c(C)c(C(=O)NCc3c(OC)cc(C)[nH]c3=O)c3ccccc32)CCN1CC(F)F (stereo not shown) [Compound 62] | – | – | IC50 [2, 4]: < 100 nM |
| CCC1CC(C(C)n2c(C)c(C(=O)NCc3c(OC)cc(C)[nH]c3=O)c3ccccc32)CCN1CC(F)F (stereo not shown) [Compound 63] | – | – | IC50 [2, 4]: < 100 nM |

| SMILES | IC50 [2, 3] | IC50 [2, 5] | further results |
| --- | --- | --- | --- |
| COc1cc(C)[nH]c(=O)c1CNC(=O)c1c(C)n(C(C)C2CCN(CC(C)(F)F)C(C)C2)c2ccccc12 (stereo not shown) [Compound 64] | < 100 nM | – | – |
| COc1cc(C)[nH]c(=O)c1CNC(=O)c1c(C)n(C(C)C2CCNC(c3cccc(F)c3)C2)c2ccccc12 (stereo not shown) [Compound 65] | – | < 100 nM | – |
| CCC1CC(C(C)n2c(C)c(C(=O)NCc3c(C)cc(C)[nH]c3=O)c3ccccc32)CCN1CC(F)F (stereo not shown) [Compound 67] | < 100 nM | – | – |
| Cc1cc(C)c(CNC(=O)c2c(C)n(C(C)C3CCN(CC(C)(F)F)C(C)C3)c3ccccc23)c(=O)[nH]1 (stereo not shown) [Compound 74] | < 100 nM | – | – |
| COc1cc(C)[nH]c(=O)c1CNC(=O)c1c(C)n(C(C)C2CCN(C(C)=O)C(CC(F)(F)F)C2)c2ccccc12 (stereo not shown) [Compound 75] | – | < 100 nM | – |
| COc1cc(C)[nH]c(=O)c1CNC(=O)c1c(C)n(C(C)C2CCNC(c3cccc(C(F)(F)F)c3)C2)c2ccccc12 (stereo not shown) [Compound 76] | – | < 100 nM | – |
| COc1cc(C)[nH]c(=O)c1CNC(=O)c1c(C)n(C(C)C2CCNC(c3cccc(C(F)(F)F)c3)C2)c2ccccc12 (stereo not shown) [Compound 77] | – | < 100 nM | – |
| COc1cc(C)[nH]c(=O)c1CNC(=O)c1c(C)n(C(C)C2CCN(C(C)=O)C(C)C2)c2ccccc12 (stereo not shown) [Compound 78] | – | < 100 nM | – |
| COC(=O)N1CCC(C(C)n2c(C)c(C(=O)NCc3c(OC)cc(C)[nH]c3=O)c3ccccc32)CC1C (stereo not shown) [Compound 79] | – | < 100 nM | – |
| COc1cc(C)[nH]c(=O)c1CNC(=O)c1c(C)n(C(C)C2CCN(C(C)=O)C(CC(F)(F)F)C2)c2ccccc12 (stereo not shown) [Compound 80] | – | < 100 nM | – |
| COc1cc(C)[nH]c(=O)c1CNC(=O)c1c(C)n(C(C)C2CCN(C(C)=O)C(CC(F)(F)F)C2)c2ccccc12 (stereo not shown) [Compound 81] | – | < 100 nM | – |
| COC(=O)N1CCC(C(C)n2c(C)c(C(=O)NCc3c(OC)cc(C)[nH]c3=O)c3ccccc32)CC1C (stereo not shown) [Compound 82] | – | 100 to 1000 nM | – |
| Cc1cc(C)c(CNC(=O)c2c(C)n(C(C)C3CCNC(CC(F)(F)F)C3)c3ccccc23)c(=O)[nH]1 (stereo not shown) [Compound 83] | < 100 nM | – | – |
| Cc1cc(C)c(CNC(=O)c2c(C)n(C(C)C3CCNC(CC(F)(F)F)C3)c3ccccc23)c(=O)[nH]1 (stereo not shown) [Compound 85] | – | – | IC50 [2, 4]: < 100 nM |
| Cc1cc(C)c(CNC(=O)c2c(C)n(C(C)C3CCNC(CC(F)(F)F)C3)c3ccccc23)c(=O)[nH]1 (stereo not shown) [Compound 86] | – | – | IC50 [2, 4]: < 100 nM |
| COc1cc(C)[nH]c(=O)c1CNC(=O)c1c(C)n(C(C)C2CCNC(CC(F)(F)F)C2)c2ccccc12 (stereo not shown) [Compound 87] | 100 to 1000 nM | – | – |
| CCS(=O)(=O)N1CCC(C(C)n2c(C)c(C(=O)NCc3c(OC)cc(C)[nH]c3=O)c3ccccc32)CC1C (stereo not shown) [Compound 93] | 100 to 1000 nM | – | – |
| CCS(=O)(=O)N1CCC(C(C)n2c(C)c(C(=O)NCc3c(OC)cc(C)[nH]c3=O)c3ccccc32)CC1C (stereo not shown) [Compound 94] | 100 to 1000 nM | – | – |
